Experimental data from US4064121A, “Substituted nitrobenzophenone derivatives and a process for the preparation thereof” (Richter Gedeon Vegyeszeti Gyar Rt., priority 1973, dated 1977).

Key:
liver microsomal enzyme = assay: Enzyme inductive effect (shortening of hexobarbital sleeping time in Wistar female rats); assay type: in vivo; settings: for Mean duration of sleeping ± S.E.: 60 mg./kg. p.o., 24 hours later hexobarbital 40 mg./kg. i.v., female Wistar rats, control 19.4 ± 1.88
Description: As reference substances, phenobarbital and phenacetine were used in the experiments. The pharmacological tests were carried out as follows:
To investigate the enzyme inductive effect, Wistar female rats, each weighing 40 to 50 g. were treated with pure solvent, or with a dosage of 60 mg./kg. of phenobarbital or the compound to be tested, respectively. 24 hours after this treatment 40 mg./kg. of hexobarbital were administered intravenously into the animals. The reduction of the elimination period and the liver enzyme induction was expressed as the shortening of the duration of sleeping.

[1] = LD50 p.o. (acute toxicity); settings: in vivo, po, species not given
central nervous system [2] = assay: Central nervous system effects (anticonvulsive, rotarod muscle relaxation, sedative tests); assay type: in vivo; settings: in the dosage utilized
[3] = Antipyretic effect (rectal temperature after yeast suspension and pyrago in male rats); assay type: in vivo; settings: 40 mg./kg. orally, yeast and pyrago fever, recorded for 5 hours
Description: To test the antipyretic effect, a 15% yeast suspension was administered to male rats each weighing 180 ±10 g. No food was given to the animals, they could consume, however, arbitrary amount of water. 16 hours after the administration of yeast the rectal body temperature of the animals was taken, and the animals were treated with pyrago in an intravenous dosage of 50 M bact./animal. The compound to be tested was administered orally into the animals, thereafter the change in rectal temperature both for the treated and the control animals was recorded for 5 hours, using an "Elab" type electrothermometer. Phenacetine, used as reference substance, and the compounds of the invention were administered in dosages of 40 mg./kg. body weight.

central nervous system [4] = settings: known effects at the test animals; cited from earlier work

With `O=C(c1ccccc1)c1ccc(N2CCOCC2)c([N+](=O)[O-])c1` [Example B2, 3-nitro-4-morpholino-benzophenone] as the molecule, how does the “Mean duration of sleeping ± S.E.” value (liver microsomal enzyme; * = p>0.05 (below a significance level of 5 %)) read?
The value was 14.6 ± 1.65 min.

What about the inductive effect (liver microsomal enzyme; in words, compared with phenobarbital) of the same molecule?
Its inductive effect is “the same as that of phenobarbital”.

What about the LD50 [1] of the same molecule?
Its LD50 is 1200 mg/kg.

And the “effect on the central nervous system” value (central nervous system [2])?
The value was “no effect on the central nervous system”.

For `CC(C)CN(CC(C)C)c1ccc(C(=O)c2ccccc2)cc1[N+](=O)[O-]` [Example B9, 3-Nitro-4-(N.N-diisobutylamino)-benzophenone], which Decrease of temperature [3] is on record?
Its Decrease of temperature is -1.0 °C.

What about the LD50 [1] of the same molecule?
Its LD50 is over 3000 mg/kg.

With `CC[N+]1(C)CCN(c2ccc(C(=O)c3ccccc3)cc2[N+](=O)[O-])CC1` [Example B11, 3-nitro-4-(N-methyl-piperazino)-benzophenone ethobromide] as the molecule, how does the Decrease of temperature [3] read?
Its Decrease of temperature is -1.1 °C.

And the LD50 [1]?
Its LD50 is over 3000 mg/kg.

For `CCOc1ccc(NC(C)=O)cc1` [Phenacetine, reference compound], which Decrease of temperature [3] is on record?
The Decrease of temperature was -1.1 °C.

With `CCC1(c2ccccc2)C(=O)NC(=O)NC1=O` [Phenobarbital, reference compound] as the molecule, how does the “Mean duration of sleeping ± S.E.” value (liver microsomal enzyme; * = (below a significance level of 5 %)) read?
The value was 14.2 ± 1.88 min.

And the “effects on the central nervous system” value (central nervous system [4])?
The value was “significant effects on the central nervous system, which manifests at the test animals in ataxia, sedatio and anticonvulsive effect”.
